Here are results for one substance from US20050214738A1, “Conditional allele system” (priority 2003, published 2005).

One experiment addresses GSK-3βFRB* (UniProt P26883+P42345, K2095P/T2098L/W2101F). The experiment in a line: Stabilization of GSK-3βFRB* in embryos of injected pregnant mice. In kind it is in vivo, mouse. Also on record: The minimal FRB domain comprises amino acids 2025-2114 of human mTor; endogenous in cells; host or cells: MEFs from GSK-3β^FRB* knock-in mice (fusion expressed from the targeted endogenous locus). The settings on record: 200 mg/kg/day IP to mother, embryos harvested at E11.5. The protocol:
GSK-3β^+/FRB* mice were intercrossed and the date of vaginal plug observation was set as E0.5. At E9.5, the stage of embryonic development was confirmed by ultrasonography (Chang, C. P. et al. “Sonographic Staging of the Developmental Status of Mouse Embryos in Utero.” (2003) Published in Genesis 36, 7-11) and mice were weighed. Drug administration commenced at E10.0. C20-MaRap was dissolved as a stock in N,N-dimethylacetamide (DMA) and was diluted into a delivery vehicle containing 10% Polyethylene glycol 400, 17% Polyoxyethylene sorbitan monooleate and 10% DMA to a final concentration of […]. 100 μL was immediately injected intraperitoneally (IP) to pregnant females with injections repeated twice more at 12 hour intervals to E11.5 when mice were sacrificed, and embryos and organs were dissected and frozen in […]. Tissues anterior to the embryonic forelimbs of individual embryos were used for preparation of protein extracts with the remainder used to determine the concentration of drug and for genotyping.

Another experiment concerns the target T1, mutant FRBs (Homo sapiens, UniProt P42345, K2095T/T2098L).
T1 construct: The minimal FRB domain comprises amino acids 2025-2114 of human mTor; expressed in transfected cells; host or cells: COS1 cells
The experiment in a line: SeAP transcriptional switch assay, panel of FRB mutants at 2095, 2098, 2101. In kind it is cell-based. As to conditions: TLW. The protocol: All FRB mutants were prepared by the Quikchange mutagenesis method (Stratagene) using protocols provided by the manufacturer. Briefly, PCR reactions containing the parent plasmid pBJ5-FRB-VP16-HA or pBJ5-FRB*-VP16-HA and overlapping oligonucleotides containing the relevant base changes were performed with Pfu polymerase (Stratagene, San Diego, Calif.). PCR reactions were digested with the methylation sensitive restriction endonuclease Dpn1 to eliminate the parent plasmid and the reaction was transformed in XL10-Gold Ultracompetent E. coli (Stratagene).
Electroporation details are available upon request. Cells were immediately aliquoted to 2 or 3×96 well plates with flat bottoms. […] Data was analysed with Softmax Pro (Molecular Devices), Microsoft Excel and Prism 3 (GraphPad Software).

The target in another experiment is T2, FRB* (Homo sapiens, UniProt P42345+P62942, K2095P/T2098L/W2101F).
T2 construct: The minimal FRB domain comprises amino acids 2025-2114 of human mTor; expressed in transfected cells; host or cells: COS-1 cells
T2 sequence (P42345 2025-2114 K2095P/T2098L/W2101F): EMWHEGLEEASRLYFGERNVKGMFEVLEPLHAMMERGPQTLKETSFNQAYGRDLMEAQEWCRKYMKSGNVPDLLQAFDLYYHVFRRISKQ
T2 sequence (P62942 whole entry, the tested form may be a part): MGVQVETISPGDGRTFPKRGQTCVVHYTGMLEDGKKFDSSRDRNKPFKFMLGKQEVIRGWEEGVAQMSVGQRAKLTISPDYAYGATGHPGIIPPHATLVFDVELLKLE
The experiment can be described thus: SeAP reporter assay, dimerization of FRB*-VP16 to FKBP3-GAL4DBD in COS-1 cells. In kind it is cell-based. The source says:
Transcription activation by recruitment of chimeric transcriptional activation and DNA binding domains is described. COS-1 cells were electroporated with […] each of the following expression plasmids (Ho, S. N., Biggar, S. R., Spencer, D. M., Schreiber, S. L., and Crabtree, G. R. “Dimeric ligands define a role for transcriptional activation domains in reinitiation.” (1996) Nature 382, 822-826): pG5IL2SX (drives transcription of bacterial secreted alkaline phosphatase (SeAP) through GAL4 DNA binding […] elements), pBJ5-GF3E (which expresses the GAL4 DNA binding domain fused to three copies of human FKBP12), and pBJ5-FRBVP. (which expresses a FRB fusion with the Herpes Simplex Virus VP16 Activation domain) A FRB*-VP16 fusion protein which consists of modified FRB protein fused to the VP16 activation domain was also used selectively. Transfected cells were distributed equally to 96 well plates and were incubated at 37° C. for 24 to 36 hours before media was supplemented with drug in a dilution curve in which each point is represented in quadruplicate. Cells were incubated at 37° C. for an additional 24 hours followed by a 2-hour treatment at 65° C. to inactivate endogenous phosphatases. Each well was supplemented with 100μL of 1 mM methylumbelliferylphosphate dissolved in 2 M diethanolamine buffered to pH 10.0 with carbonate and incubated at 37° C. for 16 hours. Fluorescence was measured with a Fluoroscan (ICN) plate reader at 355 nm transmission and 455 nm emission using Deltasoft software.
Drug efficacy was determined in a three-plasmid transcriptional switch reporter assay. ˜106 COS1 cells were coelectroporated with 2 μg of the DNA binding construct pBJ5-Gal4-FKBP(3), 2 μg pBJ5-VP16 (or the relevant mutant FRB) and 2 μg of the Gal4-SeAP reporter. Electroporation details are available upon request. […] SeAP activity was measured by fluorescence with a Spectamax M2 fluorometer (Molecular Devices, Sunnyvale, Calif.) with transmission set at 355 nm and emmission set at 460 nm. Data was analysed with Softmax Pro (Molecular Devices), Microsoft Excel and Prism 3 (GraphPad Software).

Chain of GSK-3βFRB* (P42345 2025-2114 K2095P/T2098L/W2101F): as the sequence (P42345 2025-2114 K2095P/T2098L/W2101F) above
Chain of GSK-3βFRB* (P26883 2-108): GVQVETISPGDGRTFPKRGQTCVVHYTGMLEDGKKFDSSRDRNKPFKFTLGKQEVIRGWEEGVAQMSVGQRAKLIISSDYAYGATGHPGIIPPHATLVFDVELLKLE
T1 sequence (P42345 2025-2114 K2095T/T2098L): as the sequence (P42345 2025-2114 K2095P/T2098L/W2101F) above, with P71T, F77W counted along it
T1 sequence (P62942 2-108 partner): as the sequence (P26883 2-108) above, with T49M, I75T, S78P counted along it

One may read the Kd as a measure of binding affinity in units of concentration. Higher therefore signals weaker binding. A word on the EC50: it is the concentration that produces a half-maximal response. On to “C20-(R or S)-methallylrapamycin [C20-MaRap]”, for which the “GSK-3βFRB* protein levels in embryos” value on GSK-3βFRB* is on record as “partially restored”. Further, the “binding to the TLW mutant” value at mutant FRBs is recorded as “inefficiently”. On FRB* (FRB*), the Kd turned out to be 3.1 nM. This substance had an EC50 at FRB* (FRB*(PLF)-VP16, ±95% confidence intervals) of 3.1 ± 0.36 nM.
